Measured values: patent US20120309716A1, “Motor Function Improver” (Kao Corporation, priority 2010, published 2012)

Legend:
mice [1] = assay: Swimming endurance (limit swimming time in flowing water pool); assay type: in vivo, mouse; settings: 0.25% sphingomyelin diet and exercise, five weeks after beginning of administration, flow rate 7 L/min
Source text: (§1) After preliminary rearing for one week, nine-week old BALE/c male mice (Charles River Laboratories Japan Inc.) were classified into three groups (a Cont group, an Ex group, and an SPM group) (eight mice in each group) such that each group had the same body weight and swimming endurance (determined by measuring a limit swimming time by using a flowing water pool for mice (Kyodai Matsumoto type flowing water tank for measuring an amount of exercise: length×width×depth=90×45×45 cm, water depth: 38 cm, water temperature: 34° C. (Matsumoto, J Appl Physiol. 81: 1843-1849, 1996)) by the below-mentioned method).
After grouping, the mice of the Cont group and the Ex group were fed with a control feed (10% lipid, 20% casein, 55.5% potato starch, 8.1% cellulose, 0.2% methionine, 2.2% vitamin (product name: Vitamin mix AIN-76, Oriental Bioservice, Inc.), and 4% mineral (product name: Mineral mix AIN-76, Oriental Bioservice, Inc.)), and the mice of the SPM group were fed with a test feed containing the sphingomyelin prepared in Production Example 1 (10% lipid, 20% casein, 55.25% potato starch, 8.1% cellulose, 0.2% methionine, 2.2% vitamin, 4% mineral, and 0.25% sphingomyelin) each for 13 weeks.
During the feeding period, the limit swimming time was measured for the mice of the Ex group and the SPM group using the flowing water pool for mice once a week. […]

isolated soleus muscle = assay: Suppression of muscle strength deterioration after tail suspension treatment (isolated soleus muscle); assay type: in vivo, mouse; settings: mice, 0.25% sphingomyelin diet for two weeks, then seven days of tail suspension; SPM group vs Cont group
Source text: After preliminary rearing for one week, BALB/c male mice (nine-week old) were classified into three groups (a Normal group, a Cont group, and an SPM group) based on their weights (n=8 in each group). After grouping, the mice of the Normal group and the Cont group were fed with a control feed (10% lipid, 20% casein, 55.5% potato starch, 8.1% cellulose, 0.2% methionine, 2.2% vitamin, and 4% mineral), and the mice of the SPM group were fed with a test feed containing the sphingomyelin prepared in Production Example 1 (10% lipid, 20% casein, 55.25% potato starch, 8.1% cellulose, 0.2% methionine, 2.2% vitamin, 4% mineral, and 0.25% sphingomyelin) each for two weeks. The mice were fed with the test feed for two weeks, and the mice of the Cont group and the SPM group were subject to a tail suspension treatment to exclude a gravity load on their hindlimb muscles (such as soleus muscle). […] The mice of the Normal group were not subjected to the tail suspension treatment. After seven days of the tail suspension treatment, the mice were subjected to anatomy, and muscle strength of the isolated soleus muscle was measured. The muscle strength of the isolated muscle was measured in the same way as in Test Example 1.

PGC-1α = assay: Expression of gastrocnemius muscle mitochondrial function-related gene (quantitative PCR); assay type: in vivo; settings: mouse gastrocnemius muscle after 13 weeks of rearing, 0.25% sphingomyelin test feed; control group 1.17 ± 0.10; p < 0.05
Source text: (§2) After that, the mice were fed with a control feed (10% lipid, 20% casein, 55.5% potato starch, 8.1% cellulose, 0.2% methionine, 2.2% vitamin (product name: Vitamin mix AIN-76, Oriental Bioservice, Inc.), and 4% mineral (product name: Mineral mix AIN-76, Oriental Bioservice, Inc.)) or a test feed containing the sphingomyelin (10% lipid, 20% casein, […], 8.1% cellulose, 0.2% methionine, 2.2% vitamin, 4% mineral, and 0.25% sphingomyelin) each for nine weeks, and a respiratory gas analysis was carried out at the tenth week.
After 13 weeks of rearing, the gastrocnemius muscle of a mouse of each group was collected, and RNA samples were obtained using RNeasy Fibrous Tissue Mini Kit (Qiagen). Each RNA sample was quantified, and a reverse transcription reaction was carried out in a reaction solution (1×PCR buffer II (Applied Biosystems), 5 mM MgCl2, 1 mM dNTP mix, 2.5 μM Oligo d [T]18 (New England Biolabs) and 1 U/ml RNase inhibitor (TAKARA BIO INC.) for 125 ng of RNA per reaction, to thereby obtain cDNA. The reaction was carried out under conditions of 42° C. and 10 min, 52° C. and 30 min, and 99° C. and 5 min.
Quantitative PCR was carried out using the thus obtained cDNA as a template by ABI PRISM 7700 Sequence Detector (Applied Biosystems) The results were corrected based on the expression amount of 36B4 mRNA and represented as relative mRNA expression amounts. […]

[2] = test system: isolated soleus muscle and extensor digitorum longus muscle; assay: Muscle strength of isolated soleus and extensor digitorum longus muscle after 13 weeks of rearing with exercise; assay type: in vivo, mouse; settings: mice, 0.25% sphingomyelin diet and exercise, electrical stimulation 40 Hz, 330 ms, 10V
Source text: as §1, with “method). […] After 13 weeks of rearing, the mice were subjected to anatomy, muscle strength of isolated soleus muscle and extensor digitorum longus muscle was measured. Muscle strength of the isolated muscle was measured according to a method by Cannon et al. (Biomed Sci Instrum, 2005). […] Electrical stimulation of 40 Hz, 330 ms, and 10V was applied by using two platinum electrodes, and a signal obtained from the transducer was determined as muscle strength (g/mg muscle).” for “method).”

mice [3] = assay: Respiratory gas analysis (energy consumption and lipid combustion); assay type: in vivo, mouse; settings: average in 24 hours after nine weeks of rearing, 0.25% sphingomyelin test feed
Source text: After preliminary rearing for one week, nine-week old BALB/c mice (male: Oriental Bioservice, Inc.) were classified into two groups (eight mice in each group) such that each group had the same body weight.
as §2
The mice were transferred to a chamber for respiratory gas analysis and habituated to the environment for 48 hours, and oxygen consumption level and respiratory quotient of each mouse were measured over 24 hours using Arco-2000 system (ARCOSYSTEM Inc.). […] From the oxygen consumption level and respiratory quotient, the lipid combustion level was calculated by an equation of Peronnet (Peronnet F, and Massicotte D (1991) Can J Sport Sci 16:23-29.).

sphingomyelin
swimming endurance (limit swimming time) (mice [1]): significant improvement in endurance | muscle strength of the isolated soleus muscle (isolated soleus muscle): significantly higher value | PGC-1α relative mRNA expression amount (corrected based on 36B4 mRNA) (PGC-1α): 1.50 ± 0.15 | muscle strength of the extensor digitorum longus muscle [2]: significantly higher values | muscle strength of the soleus muscle [2]: significantly higher values | Lipid combustion level (mice [3]; calculated by equation of Peronnet, control group 5.4 ± 0.7, p < 0.05): 7.5 ± 0.7 mg/kg/min | Oxygen consumption level (mice [3]; control group 55.0 ± 1.0, p < 0.05): 58.2 ± 0.8 mL/min/kg
